# Experimental data: patent publication US12121518B2, “PARP-1 and methods of use thereof” (The Board of Supervisors of Louisiana State University and …, priority 2017, dated 2024)
# Key:
# [1] = test system: MDSCs and T cells; assay: FACS of tumor-infiltrating and spleen immune cells in the MC-38 model; assay type: in vivo, mouse
# From the text: Tumors from the different experimental groups were either processed to generate single-cell suspensions or fixed with formalin. Single cell suspensions were stained with a combination of antibodies to CD45, CD11b, Gr1, Ly6C, and Ly6G. CD11b^+ cell population was gated from the live CD45^+ population. (A) Representative FACS dot plot of the experimental groups. (B) Absolute numbers and percentages of CD11b^+Gr1^+ cell populations in tumors of the different groups. (C) Absolute numbers and percentages of CD11b^+Ly6C^+ and CD11b^+Ly6G^+ populations in tumors of the different groups. (D) Absolute numbers and percentages of CD45^+CD3^+ and CD3^+CD8^+ cell populations in tumors of the different groups. […] (F) Percentages of CD45^+CD3^+ and CD3^+CD8^+ cell populations in spleens of the different groups. […] T cell proliferation was assessed by FACS. p≤0.05; **, p≤0.01; ***, p≤0.001.
# Flow cytometric characterization of tumor infiltrating immune cells using fluorescence-activated cell sorting (FACS) analysis—Following digestion, tumor homogenates were filtered through a […] cell strainer to obtain a single cell suspension. Cell suspensions were then subjected to red blood cell lysis using ACK buffer for 5 minutes before resuspending in complete media. Cells were treated with anti-CD16/CD32 (BD; 2.4G2) for Fc blocking prior to staining with fluorescently-labeled mouse antibodies specific for CD45 (30-F11), CD3e (500A2) (both from eBioscience, San Diego, CA), Ly6C (AL-21), Ly6G (1A8), Gr1 (RB6-8C5), CD11b (M1/70), CD8 (53-6.7), and PD-1 (PA5-J43) (all from BD Biosciences, San Jose, CA). Single cells were gated by first using forward- and side-scatter doublet discrimination. Immune cells were discriminated from this doublet-excluded population using CD45. Myeloid cells were identified using a CD11b^+gate and MDSC subtypes identified by Gr1 selection and then plotted Ly6G/Ly6C. CD3^+ T-cells were gated from CD45^+ cells. CD4^+ and C8^+ T-cells were identified from CD3^+ gate. The detailed gating strategy is described in FIG. 45.
# [2] = test system: ARG-1, iNOS, COX2; assay: Immunoblot of ARG-1, iNOS, COX2 and related factors in bone marrow-derived MDSCs; assay type: cell-based, mouse
# From the text: (I) Positive control for PARP-1 trapping.
# Cell fractionation, protein extraction and immunoblot analysis—Tumor tissues or cells were harvested and homogenized in RIPA lysis buffer (Santa Cruz Biotechnology) containing a cocktail of protease and phosphatase inhibitors on ice. Nuclear fractions were isolated as described (35) and the remaining chromatin pellets were washed then suspended in an isotonic buffer followed by sonication. […] Protein expression signals developed by ECL (Pierce, ThermoFisher Scientific) were determined by a G:Box Gel Image Analysis System (Syngene, Cambridge, UK) equipped with the GeneSys image capture software.
# [3] = test system: steroid-resistant asthma; assay: Ovalbumin/LPS/IFNγ-based mouse model of steroid-resistant asthma; assay type: in vivo; conditions: 5 mg/kg
# Procedure: Balb/c mice were sensitized by i.p. injection of 20 μg of Ova in 2.25 mg aluminium hydroxide on days 1 and 14. Steroid resistance was induced by intranasal instillation of Lps (10 μg/mouse) on day 27. Mice were treated with s.c injection of dexmethasone (5 mg/kg) on days 29 and 30. Mice were challenged with aerosolized 1% OVA on days 28, 29, 30 for 20 minutes. Airway hyper responsiveness was measured using plesthesmography 24 hours after the last OVA challenge. Statistics are not included.
# Balb I c mice were sensitized by i.p. injection of 20 μg of Ova in 2.25 mg aluminium hydroxide on days 1 and 14. Steroid resistance was induced by intranasal instillation of Lps (10 µg/mouse) on day 27. Mice were treated with s.c injection of dexmethasone (5 mg/kg) on days 29 and 30. Mice were challenged with aerosolized 1% OVA on days 28, 29, 30 for 20 minutes. All mice were euthanized 48 hours after the last OVA challenge then subjected to broncholaveolar lavage. Inflammatory cells were differentiated and assessed using Diff Quick staining. Statistics are not included.
# Balb/c mice were sensitized by i.p. injection of 20 μg of Ova in 2.25 mg aluminium hydroxide on days 1 and 14. Steroid resistance was induced by intranasal instillation of Lps (10 μg/mouse) on day 27. Mice were treated with s.c injection of dexmethasone (5 mg/kg) on days 29 and 30. Mice were challenged with aerosolized 1% OVA on days 28, 29, 30 for 20 minutes. All mice were euthanized 48 hours after the last OVA challenge. Cytokines were measured in the collected serum and BAL fluid using multiplex assay. And IgE production was assessed busing sandwich ELISA. Statistics are not included.
# Objective: To investigate whether PARP inhibition could restore steroid sensitivity to block LPS/IFN-γ-induced neutrophilia and AHR in steroid-resistant asthma model of the disease. Methods: An ovalbumin/LPS/IFNγ-based model of steroid-resistant murine asthma and an airway epithelial cell culture system were used in this study.
# [4] = test system: CD3+ T cells; assay: Proliferation of CD3/CD28-stimulated T cells in the absence of MDSCs; conditions: 72 h, no MDSCs
# Procedure: After 96 h, cells were collected and stained with antibodies to CD11b or Gr1 and assessed by FACS (A) or co-cultured with CD3/CD28-stimulated and CFSC-labeled WT CD3^+ T cells for 72 h followed by an assessment of proliferation by FACS (B).
compound,measurement,setting,value
O=C(c1cc(Cc2n[nH]c(=O)c3ccccc23)ccc1F)N1CCN(C(=O)C2CC2)CC1 [olaparib],CD3+ T cells in tumors (mostly CD8+),[1]; low dose 0.2 mg/kg,increased
same,percentages and numbers of CD11b+/Gr1+ MDSCs in tumors,[1]; low dose 0.2 mg/kg,did not significantly affect
same,numbers and percentages of M-MDSCs in tumors,[1]; moderate dose 5 mg/kg,significantly increased
same,overall CD3+ T cells in spleens (with concomitant decrease in CD8+),[1]; moderate dose 5 mg/kg,substantial decrease
same,"increase in ARG-1, iNOS and COX2 during MDSC differentiation","[2]; 4 nM, single treatment 24 h after plating","sufficient to prevent the increase in ARG-1, iNOS, and COX2"
same,ARG-1 and iNOS in MDSCs stimulated by co-culture with MC-38 cells,"[2]; low and high concentrations (4 nM, 1 μM)",inhibitory effects
same,overall levels of STAT3 (and phosphorylated forms),[2]; low concentration 4 nM,increased the overall levels of STAT3
same,OVA-specific IgE secretion in BALF and serum,[3],marked reduction in OVA-specific IgE secretion
same,Th2 cytokine production,[3],marked reduction in Th2 cytokine production
same,established steroid-resistant asthma manifestation,[3],reversed the established steroid-resistant asthma manifestation in mice
same,infiltration of inflammatory cells into the airways,[3],blocked the infiltration of inflammatory cells into the airways
same,proliferation of T cells,[4]; high concentration 5 μM,significant effects on T-cell proliferation
same,proliferation of T cells,[4]; low concentration 4 nM,no effect on proliferation of T cells
same,proliferation of T cells,[4]; moderate concentration 0.1 μM,significant effects on T-cell proliferation
